# Measured values from PMC8922279, “Identification of β-Lactams Active against Mycobacterium tuberculosis by a Consortium of Pharmaceutical Companies and Academic Institutions” (ACS Infectious Diseases, 2022).
# Like-named read-outs stand apart in the source and are kept apart here.
# Tests used:
# [1] = uninfected DHP-1 mice
# in vitro [2] = settings: human, plasma, Plasma stability % Remaining
# in vitro [3] = settings: cynomolgus monkey, plasma, pH 7.4
# in vivo [4] = settings: DHP-1 knockout, mouse, sc
# wild-type Mtb H37Rv = format: in vivo, 129sv DHP-1 knockout mice; settings: for Log10 CFU per mouse (lungs), Mean: 50 mg/kg sc bid + clavulanate 100 mg/kg po bid, days 9-15, lungs day 16, untreated day 16 mean 9.1
# in vitro [5] = settings: beagle, dog, plasma, pH 7.4
# in vitro [6] = settings: human; for Papp A→B at 120 min, 3 μM / Papp B→A at 120 min, 3 μM: Caco-2, pH 7.4
# [7] = female, 129sv DHP-1 knockout, mouse, in vivo
# in vivo [8] = settings: female, CD-1, mouse
# in vitro [9] = settings: beagle, dog, plasma
# in vitro [10] = settings: monkey, plasma
# physchem [11] = settings: simulated gi fluid, pH 1.2
# Mtb H37Rv [12] = assay: MIC90 against replicating (R) Mtb H37Rv, with or without clavulanate; format: cell-based, Mycobacterium tuberculosis; settings: Table S4; for Mtb H37Rv R + CLAV (MIC90): clavulanate 4 μg/mL; for Mtb H37Rv R (MIC90): no clavulanate
# physchem [13] = settings: simulated gi fluid, pH 6.5, FaSSIF Stability, % remaining
# in vitro [14] = settings: human, plasma, pH 7.4, % bound to plasma
# in vitro [15] = settings: male, CD-1, mouse, plasma, Plasma stability % Remaining
# HepG2 cells = assay: Cytotoxicity against HepG2 cells (CellTiter-Glo); format: cell-based, human; settings: Table S4
# Description: Compounds were tested for cytotoxicity against HepG2 cells as previously described.[48],[69],[70] Briefly, cells were exposed to compounds for 48–72 h, and viability was measured using CellTiter-Glo (Promega).
# in vitro [16] = settings: CD-1, mouse, plasma, pH 7.4, % bound to plasma
# in vivo [17] = settings: female, 129sv DHP-1 knockout, mouse, sc, 50 mg/kg
# P. aeruginosa = assay: Microbial spectrum, P. aeruginosa; format: cell-based, Pseudomonas aeruginosa; settings: clavulanate 4 μg/mL; Table S4
# C. albicans = assay: Microbial spectrum, C. albicans; format: cell-based, Candida albicans; settings: no clavulanate; Table S4
# E. coli = assay: Microbial spectrum, E. coli; format: cell-based, Escherichia coli; settings: clavulanate 4 μg/mL; Table S4
# Mtb H37Rv [18] = assay: MIC90 against nonreplicating (NR, 4-stress) Mtb H37Rv, with or without clavulanate; format: cell-based, Mycobacterium tuberculosis; settings: 4-stress nonreplicating, Table S4; for Mtb H37Rv NR + CLAV (MIC90): clavulanate 4 μg/mL; for Mtb H37Rv NR (MIC90): no clavulanate
# S. aureus = assay: Microbial spectrum, S. aureus; format: cell-based, Staphylococcus aureus; settings: clavulanate 4 μg/mL; Table S4
# in vitro [19] = settings: SD, rat, plasma, Plasma stability % Remaining
# in vitro [20] = settings: SD, rat, plasma, pH 7.4, % bound to plasma
# [21] = Caco-2, pH 7.4, Caco-2 Mean Recovery % A to B
# [22] = Caco-2, pH 7.4, Caco-2 Mean Recovery % B to A
smiles,measurement,setting,value
CN(C)C(=S)SCC1=C(C(=O)O)N2C(=O)[C@@H](NC(=O)Cc3cccs3)[C@H]2SC1 [TBBL-0000009],Tlast,[1]; 300 mg/kg sc,4.0 h
same,"remaining at 2 h, 2 μM",in vitro [2],97.9%
same,"fraction unbound at 4 h, 2 μM",in vitro [3],0.047
same,AUC(0-t),in vivo [4]; 300 mg/kg,8810 ± 675 ng·h/mL
same,Cmax,in vivo [4]; 300 mg/kg,2650 ± 266 ng/mL
same,Tmax,in vivo [4]; 300 mg/kg,120 to 240 min
same,"Log10 CFU per mouse (lungs), Mean",wild-type Mtb H37Rv,8.7 Log10 CFU
same,reduction of lung CFU compared to untreated control mice,"wild-type Mtb H37Rv; mouse, in vivo",~0.4 log10
same,"fraction unbound at 4 h, 2 μM",in vitro [5],0.084
same,"Papp A→B at 120 min, 3 μM",in vitro [6],< 0.5 ×10⁻⁶ cm/s
same,"Papp B→A at 120 min, 3 μM",in vitro [6],< 0.43 ×10⁻⁶ cm/s
same,"recovery at 120 min, 3 μM",in vitro [6]; [21],< 98.3%
same,"recovery at 120 min, 3 μM",in vitro [6]; [22],< 103%
same,Caco-2 Rank Papp,Caco-2 cells,Moderate
same,Tlast,[7],6.0 h
same,AUC(0-t),"in vivo [8]; iv, 5 mg/kg",20300 ng·h/mL
same,Vd,"in vivo [8]; iv, 5 mg/kg",0.18 L/kg
same,clearance,"in vivo [8]; iv, 5 mg/kg",4.25 mL/min/kg
same,half-life,"in vivo [8]; iv, 5 mg/kg",30 min
same,k el,"in vivo [8]; iv, 5 mg/kg",0.000389 s⁻¹
same,AUC(0-t),"in vivo [8]; po, 25 mg/kg",1360 ng·h/mL
same,bioavailability,"in vivo [8]; po, 25 mg/kg",1.33%
same,"remaining at 2 h, 2 μM",in vitro [9],104%
same,"remaining at 2 h, 2 μM",in vitro [10],133%
same,"remaining at 1 h, 10 μM",physchem [11],31.7%
same,"remaining at 24 h, 10 μM",physchem [11],9.96%
same,Mtb H37Rv R + CLAV (MIC90),Mtb H37Rv [12],4 µM
same,Mtb H37Rv R (MIC90),Mtb H37Rv [12],8 µM
same,"remaining at 6 h, 10 μM",physchem [13],85.3%
same,"remaining at 24 h, 10 μM",physchem [13],90.9%
same,"fraction unbound at 4 h, 2 μM",in vitro [14],0.034
same,"remaining at 2 h, 2 μM",in vitro [15],93%
same,HepG2 LD50,HepG2 cells,6.6 µM
same,"fraction unbound at 4 h, 2 μM",in vitro [16],0.095
same,AUC(0-t),in vivo [17],975 ng·h/mL
same,Cmax,in vivo [17],380 ng/mL
same,Tmax,in vivo [17],30 min
same,P.aeruginosa R + CLAV (MIC90),P. aeruginosa,> 100 µM
same,C.albicans R (MIC90),C. albicans,> 100 µM
same,E.coli R + CLAV (MIC90),E. coli,> 100 µM
same,Mtb H37Rv NR + CLAV (MIC90),Mtb H37Rv [18],> 100 µM
same,Mtb H37Rv NR (MIC90),Mtb H37Rv [18],> 100 µM
same,S.aureus R + CLAV (MIC90),S. aureus,1 µM
same,"remaining at 2 h, 2 μM",in vitro [19],95.8%
same,"fraction unbound at 4 h, 2 μM",in vitro [20],0.022
O=C(O)C1=C(CSc2cccc[n+]2[O-])CS[C@@H]2[C@H](NC(=O)/C(=N\Oc3ccccc3)c3ccco3)C(=O)N12 [TBBL-0000005],Comments (tolerability),[1]; 50 mg/kg sc,No side effects
same,Tlast,[1]; 50 mg/kg sc,2.0 to 4.0 h
same,"remaining at 2 h, 2 μM",in vitro [2],73.7%
same,"fraction unbound at 4 h, 2 μM",in vitro [3],0.06
same,AUC(0-t),in vivo [4]; 50 mg/kg,18200 ± 7180 ng·h/mL
same,Cmax,in vivo [4]; 50 mg/kg,26600 ± 10000 ng/mL
same,Tmax,in vivo [4]; 50 mg/kg,15 to 30 min
same,"Log10 CFU per mouse (lungs), Mean",wild-type Mtb H37Rv,8.9 Log10 CFU
same,"fraction unbound at 4 h, 2 μM",in vitro [5],0.186
same,"Papp A→B at 120 min, 3 μM",in vitro [6],< 0.33 ×10⁻⁶ cm/s
same,"Papp B→A at 120 min, 3 μM",in vitro [6],< 0.28 ×10⁻⁶ cm/s
same,"recovery at 120 min, 3 μM",in vitro [6]; [21],< 88.9%
same,"recovery at 120 min, 3 μM",in vitro [6]; [22],< 89.8%
same,Caco-2 Rank Papp,Caco-2 cells,Low
same,Tlast,[7],6.0 h
same,AUC(0-t),"in vivo [8]; iv, 5 mg/kg",3330 ng·h/mL
same,Vd,"in vivo [8]; iv, 5 mg/kg",0.23 L/kg
same,clearance,"in vivo [8]; iv, 5 mg/kg",5 mL/min/kg
same,half-life,"in vivo [8]; iv, 5 mg/kg",32.4 min
same,k el,"in vivo [8]; iv, 5 mg/kg",0.000356 s⁻¹
same,AUC(0-t),"in vivo [8]; po, 25 mg/kg",97 ng·h/mL
same,bioavailability,"in vivo [8]; po, 25 mg/kg",0.11%
same,"remaining at 2 h, 2 μM",in vitro [9],51.3%
same,"remaining at 2 h, 2 μM",in vitro [10],108%
same,"remaining at 1 h, 10 μM",physchem [11],120%
same,"remaining at 24 h, 10 μM",physchem [11],76.6%
same,Mtb H37Rv R + CLAV (MIC90),Mtb H37Rv [12],2.7 µM
same,Mtb H37Rv R (MIC90),Mtb H37Rv [12],2.9 µM
same,"remaining at 6 h, 10 μM",physchem [13],98.7%
same,"remaining at 24 h, 10 μM",physchem [13],98.5%
same,"fraction unbound at 4 h, 2 μM",in vitro [14],0.129
same,"remaining at 2 h, 2 μM",in vitro [15],60.6%
same,HepG2 LD50,HepG2 cells,88.7 µM
same,"fraction unbound at 4 h, 2 μM",in vitro [16],0.06
same,AUC(0-t),in vivo [17],7920 ng·h/mL
same,Cmax,in vivo [17],4130 ng/mL
same,Tmax,in vivo [17],30 min
same,P.aeruginosa R + CLAV (MIC90),P. aeruginosa,> 100 µM
same,C.albicans R (MIC90),C. albicans,> 100 µM
same,E.coli R + CLAV (MIC90),E. coli,> 100 µM
same,Mtb H37Rv NR + CLAV (MIC90),Mtb H37Rv [18],1.5 µM
same,Mtb H37Rv NR (MIC90),Mtb H37Rv [18],1.8 µM
same,S.aureus R + CLAV (MIC90),S. aureus,0.8 µM
same,"remaining at 2 h, 2 μM",in vitro [19],35.2%
same,"fraction unbound at 4 h, 2 μM",in vitro [20],0.121
